Results as given in patent publication US12492188B2, “1H-benzo[D]imidazole derivatives as TLR9 inhibitors for the treatment of fibrosis” (BRISTOL-MYERS SQUIBB COMPANY, priority 2020, dated 2025).
Read-outs that look alike come from different tables or passages of the source.

Target: T1, human TLR9 (Homo sapiens, UniProt Q9NR96)
T1 construct: host or cells: HEK-Blue cells (HEK293-derived reporter line)
T1 sequence (Q9NR96 26-1032): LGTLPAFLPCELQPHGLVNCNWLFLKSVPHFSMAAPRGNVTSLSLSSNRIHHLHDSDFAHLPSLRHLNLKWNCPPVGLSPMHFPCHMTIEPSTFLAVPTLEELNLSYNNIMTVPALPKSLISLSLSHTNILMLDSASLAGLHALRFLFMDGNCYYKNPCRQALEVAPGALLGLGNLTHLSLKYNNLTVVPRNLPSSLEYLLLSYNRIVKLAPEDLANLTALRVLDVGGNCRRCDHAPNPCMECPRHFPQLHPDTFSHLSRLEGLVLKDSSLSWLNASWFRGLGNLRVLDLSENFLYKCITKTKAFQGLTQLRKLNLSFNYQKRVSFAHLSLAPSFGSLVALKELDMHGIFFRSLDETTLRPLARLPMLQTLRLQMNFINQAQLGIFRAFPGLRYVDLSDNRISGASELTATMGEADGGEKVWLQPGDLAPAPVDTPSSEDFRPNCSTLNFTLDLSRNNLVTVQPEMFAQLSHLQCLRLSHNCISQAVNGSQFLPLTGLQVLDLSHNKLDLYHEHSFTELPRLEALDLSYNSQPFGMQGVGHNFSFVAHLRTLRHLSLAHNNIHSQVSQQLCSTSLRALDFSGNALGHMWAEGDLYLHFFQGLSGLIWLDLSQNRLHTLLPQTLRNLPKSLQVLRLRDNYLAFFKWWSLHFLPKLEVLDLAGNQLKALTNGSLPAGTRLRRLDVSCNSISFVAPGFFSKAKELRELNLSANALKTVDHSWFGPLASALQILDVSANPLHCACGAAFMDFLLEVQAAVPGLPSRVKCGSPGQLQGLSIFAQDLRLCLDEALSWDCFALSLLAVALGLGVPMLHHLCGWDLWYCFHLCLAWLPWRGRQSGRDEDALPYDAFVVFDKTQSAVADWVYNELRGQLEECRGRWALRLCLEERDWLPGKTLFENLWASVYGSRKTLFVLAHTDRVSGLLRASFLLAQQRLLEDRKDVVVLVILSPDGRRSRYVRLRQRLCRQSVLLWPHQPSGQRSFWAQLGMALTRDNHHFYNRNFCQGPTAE
Assay: TLR9 inhibition reporter assay (HEK-Blue cells, secreted embryonic alkaline phosphatase reporter)
Format: cell-based
How it was run: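 Steps: seed receptor-specific HEK-Blue cells; add compound, 0.05 nM–50 μM; wait 30 min at room temperature; add final gardiquimod 7.5 μM, R848 15.9 μM or ODN2006 5 nM for TLR7, TLR8 or TLR9; incubate 22 h at 37 °C; detect NF-κB/AP-1-driven SEAP.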

[1] = HEK-Blue cells overexpressing human TLR9, stimulated with ODN2006 5 nM, read-out: TLR 9 IC50
[2] = HEK-Blue human TLR9 reporter cells
[3] = HEK-Blue cells overexpressing human TLR9, stimulated with ODN2006 5 nM, 22 hour incubation, reporter readout

Compound | IC50 [1] [nM] | IC50 [2] [nM] | IC50 [3] [nM]
Cc1cc(C2CCN(C3CC4CCC(C3)N4C3CC3)CC2)cc2c1nc(-c1ccc(S(C)(=O)=O)c(F)c1)n2C (stereo not drawn) [Example 345, 6-(1-(8-cyclopropyl-8-azabicyclo[3.2.1]octan-3-yl)piperidin-4-yl)-2-(3-fluoro-4-(methylsulfonyl)phenyl)-1,4-dimethyl-1H-benzo[d]imidazole] | 132 | 130 | –
Cc1cc(C2CCN(C3CC4CCC(C3)N4C3CC3)CC2)cc2[nH]c(-c3ccc(S(C)(=O)=O)c(F)c3)nc12 (stereo not drawn) [Example 347, 6-(1-(8-cyclopropyl-8-azabicyclo[3.2.1]octan-3-yl)piperidin-4-yl)-2-(3-fluoro-4-(methylsulfonyl)phenyl)-4-methyl-1H-benzo[d]imidazole] | 44 | 44 | –
Cc1cc(C2CCN(C3CC4CCC(C3)N4C(C)C)CC2)cc2[nH]c(-c3ccc(S(C)(=O)=O)c(F)c3)nc12 (stereo not drawn) [Example 348, 2-(3-fluoro-4-(methylsulfonyl)phenyl)-6-(1-(8-isopropyl-8-azabicyclo[3.2.1]octan-3-yl)piperidin-4-yl)-4-methyl-1H-benzo[d]imidazole] | 180 | 180 | –
Cc1cc(C2CCN(C3CC4CCC(C3)N4C3CCC3)CC2)cc2[nH]c(-c3ccc(S(C)(=O)=O)c(F)c3)nc12 (stereo not drawn) [Example 349, 6-(1-(8-cyclobutyl-8-azabicyclo[3.2.1]octan-3-yl)piperidin-4-yl)-2-(3-fluoro-4-(methylsulfonyl)phenyl)-4-methyl-1H-benzo[d]imidazole] | 24 | 24 | –
Cc1cc(C2CCN(C3CC4CCC(C3)N4C3CCC3)CC2)cc2[nH]c(-c3ccc(S(C)(=O)=O)c(F)c3)nc12 (stereo not drawn) [Example 350, 6-(1-(8-cyclobutyl-8-azabicyclo[3.2.1]octan-3-yl)piperidin-4-yl)-2-(3-fluoro-4-(methylsulfonyl)phenyl)-4-methyl-1H-benzo[d]imidazole] | 55 | 55 | –
Cc1cc(C2CCN(C3CC4CCC(C3)N4CC3CC3)CC2)cc2[nH]c(-c3ccc(S(C)(=O)=O)c(F)c3)nc12 (stereo not drawn) [Example 351, 6-(1-(8-(cyclopropylmethyl)-8-azabicyclo[3.2.1]octan-3-yl)piperidin-4-yl)-2-(3-fluoro-4-(methylsulfonyl)phenyl)-4-methyl-1H-benzo[d]imidazole] | 48 | 48 | –
Cc1cc(C2CCN(C3CC4CCC(C3)N4CC3CC3)CC2)cc2[nH]c(-c3ccc(S(C)(=O)=O)c(F)c3)nc12 (stereo not drawn) [Example 352, 6-(1-(8-(cyclopropylmethyl)-8-azabicyclo[3.2.1]octan-3-yl)piperidin-4-yl)-2-(3-fluoro-4-(methylsulfonyl)phenyl)-4-methyl-1H-benzo[d]imidazole] | 26 | 26 | –
COc1cc(-c2nc3c(C)cc(C4CCN(C5CC6CCC(C5)N6C5CCC5)CC4)cc3[nH]2)cn2ncnc12 (stereo not drawn) [Example 361, 6-(6-(1-(8-cyclobutyl-8-azabicyclo[3.2.1]octan-3-yl)piperidin-4-yl)-4-methyl-1H-benzo[d]imidazol-2-yl)-8-methoxy-[1,2,4]triazolo[1,5-a]pyridine] | 20 | 21 | –
COc1cc(-c2nc3c(C)cc(C4CCN(C5CC6CCC(C5)N6C(C)C)CC4)cc3[nH]2)cn2ncnc12 (stereo not drawn) [Example 362, 6-(6-(1-(8-isopropyl-8-azabicyclo[3.2.1]octan-3-yl)piperidin-4-yl)-4-methyl-1H-benzo[d]imidazol-2-yl)-8-methoxy-[1,2,4]triazolo[1,5-a]pyridine] | 152 | 150 | –
Cc1cc(-c2ccc(CCN3CCC(C)(O)CC3)cc2)cc2c1nc(-c1ccc(S(C)(=O)=O)cc1)n2C [Example 366, 1-(4-(1,4-dimethyl-2-(4-(methylsulfonyl)phenyl)-1H-benzo[d]imidazol-6-yl)phenethyl)-4-methylpiperidin-4-ol] | 446 | – | 450
CN(C)C1CCN(Cc2ccc(-c3ccc4nc(-c5cc(F)cc(F)c5)n(C)c4c3)cc2)CC1 [Example 381, 1-(4-(2-(3,5-difluorophenyl)-1-methyl-1H-benzo[d]imidazol-6-yl)benzyl)-N,N-dimethylpiperidin-4-amine] | 140 | – | 140
CN(C)C1CCN(Cc2ccc(-c3ccc4nc(-c5ccc(F)c(F)c5)n(C)c4c3)cc2)CC1 [Example 382, 1-(4-(2-(3,4-difluorophenyl)-1-methyl-1H-benzo[d]imidazol-6-yl)benzyl)-N,N-dimethylpiperidin-4-amine] | 3240 | – | 3.2
CN(C)C1CCN(Cc2ccc(-c3ccc4nc(-c5cccc(S(C)(=O)=O)c5)n(C)c4c3)cc2)CC1 [Example 384, N,N-dimethyl-1-(4-(1-methyl-2-(3-(methylsulfonyl)phenyl)-1H-benzo[d]imidazol-6-yl)benzyl)piperidin-4-amine] | 41000 | – | 41
CC(C)N1CC2(CN(Cc3ccc(-c4cc(F)c5nc(-c6ccc(S(C)(=O)=O)cc6)n(C6CC6)c5c4)cc3)C2)C1 [Example 410, 1-cyclopropyl-4-fluoro-6-(4-((6-isopropyl-2,6-diazaspiro[3.3]heptan-2-yl)methyl)phenyl)-2-(4-(methylsulfonyl)phenyl)-1H-benzo[d]imidazole] | 44 | – | 44
CC(C)CN1CC2(CN(Cc3ccc(-c4cc(F)c5nc(-c6ccc(S(C)(=O)=O)cc6)n(C6CC6)c5c4)cc3)C2)C1 [Example 411, 1-cyclopropyl-4-fluoro-6-(4-((6-isobutyl-2,6-diazaspiro[3.3]heptan-2-yl)methyl)phenyl)-2-(4-(methylsulfonyl)phenyl)-1H-benzo[d]imidazole] | 0.9 | – | 0.85
CS(=O)(=O)c1ccc(-c2nc3c(F)cc(-c4ccc(CN5CC6(C5)CN(C5CCOCC5)C6)cc4)cc3n2C2CC2)cc1 [Example 412, 1-cyclopropyl-4-fluoro-2-(4-(methylsulfonyl)phenyl)-6-(4-((6-(tetrahydro-2H-pyran-4-yl)-2,6-diazaspiro[3.3]heptan-2-yl)methyl)phenyl)-1H-benzo[d]imidazole] | 77 | – | 77
Cc1cc(-c2ccc(CN3CCN(CC(C)C)CC3)cc2)cc2c1nc(-c1ccc(S(C)(=O)=O)cc1)n2C [Example 414, 6-(4-((4-isobutylpiperazin-1-yl)methyl)phenyl)-1,4-dimethyl-2-(4-(methylsulfonyl)phenyl)-1H-benzo[d]imidazole] | – | – | 1800
CC(C)CN1CCC(N2CCC(c3ccc4nc(-c5ccc(S(C)(=O)=O)cc5)n(C5CC5)c4c3F)CC2)CC1 [Example 415, 1-cyclopropyl-7-fluoro-6-(1′-isobutyl-[1,4′-bipiperidin]-4-yl)-2-(4-(methylsulfonyl)phenyl)-1H-benzo[d]imidazole] | 65 | – | 65
Cc1cc(-c2ccc(OC3CCN(C(C)C)CC3)cc2)cc2c1nc(-c1ccc(S(C)(=O)=O)cc1)n2C [Example 416, 6-(4-((1-isopropylpiperidin-4-yl)oxy)phenyl)-1,4-dimethyl-2-(4-(methylsulfonyl)phenyl)-1H-benzo[d]imidazole] | 1190 | – | 1200
Cc1cc(-c2ccc(OC3CCN(CC(C)C)CC3)cc2)cc2c1nc(-c1ccc(S(C)(=O)=O)cc1)n2C [Example 417, 6-(4-((1-isobutylpiperidin-4-yl)oxy)phenyl)-1,4-dimethyl-2-(4-(methylsulfonyl)phenyl)-1H-benzo[d]imidazole] | 800 | – | 800
